In US10118922B2 (Janssen Pharmaceutica NV, priority 2013, dated 2018):

Columns and labels:
[1] = target: T1, Human GPR120 short form (Homo sapiens, UniProt Q5NUL3); assay: Human GPR120 calcium flux assay, Procedure Calcium A; assay type: cell-based; settings: HEK-293 cells, FLIPR, 2500 cells/well; read-out: GPR120 Ca2+ Assay A EC50
T1 construct: expressed in transfected cells
T1 sequence (Q5NUL3 1-361): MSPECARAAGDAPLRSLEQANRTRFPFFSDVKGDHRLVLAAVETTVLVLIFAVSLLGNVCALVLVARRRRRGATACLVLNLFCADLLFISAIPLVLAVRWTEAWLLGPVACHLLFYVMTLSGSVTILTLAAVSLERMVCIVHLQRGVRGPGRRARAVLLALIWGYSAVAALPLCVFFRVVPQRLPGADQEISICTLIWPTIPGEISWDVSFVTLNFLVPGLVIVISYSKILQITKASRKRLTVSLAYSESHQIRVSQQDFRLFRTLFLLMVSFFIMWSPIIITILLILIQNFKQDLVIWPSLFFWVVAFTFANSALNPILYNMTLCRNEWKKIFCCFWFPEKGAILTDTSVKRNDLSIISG
Protocol: These cells are first loaded with the Ca^+2 sensitive dye, Fluo-4 NR. Upon stimulation, intracellular released Ca^+2 can bind to the dye and alter its fluorescence intensity. This increase in fluorescence signal, and thus the flux in intracellular [Ca^2+], is detected and quantitated by fluorescence imaging using a FLIPR reader. The effect of the agonist is measured as a function of concentration and used to calculate an EC50 based upon a response curve.
In this procedure 2500 cells/well were employed.
A Human GPR120 clone (Genbank accession number NM_001195755.1) was placed into the pcDNA3.1 mammalian expression vector carrying the neomycin resistance gene. A stable mammalian cell was generated by placing the above clone into a HEK293 background. […] Cells were split 2 times a week to keep the cells in the log-phase growth.
In preparation for the assay, HEK cells stably transfected with Human GPR120 (2.5K cells per well in 25 uL growth medium) were seeded into 384-well plates and then incubated overnight (37° C., 5% CO2). The next day, the media was changed to 20 μL assay buffer and the cell starved for 1 h at 37° C. The dye loading solution (2× dye) was prepared using 10 mL assay buffer, 100 μL of 250 mM probenecid, 1 bottle of Component A, and 20 μl of dye in DMSO. Twenty μL of the 2× dye loading buffer was then added to each well. The plates were incubated at 37° C. for 30 min, then at room temperature for an additional 15 minutes, before performing the assay on FLIPR.
The assay was performed on a FLIPR plate reader using the following parameters. Baseline was read for 10 seconds at 1 sec intervals. The program was set to transfer 10 μL of ligand from compound plate to cell plate after baseline reading. Aspiration was executed at: 10 μL/sec speed, 4.6 μL height; Dispensing was executed at: 30 μL/sec speed, 45 μL height. After compound addition, each well was read for 300 sec, with measurements collected at 1 sec intervals.
The kinetic data from the FLIPR was based upon a 5 minute window for data collection. The fluorescence of each sample well was used for individual calculations of a normalized RFU value, which was defined as maximum response minus the minimum response. […] The Fitting Equation was: Y=Bottom+(Top-Bottom)/(1+10^((Log EC50−X)*HillSlope)), where X is the log of the concentration and Y is the response.

[2] = target: T2, short form of the GPR120 receptor (Homo sapiens, UniProt Q5NUL3); assay: Human GPR120 DiscoveRx PathHunter beta-arrestin assay, Procedure β-arrestin B; assay type: cell-based; settings: PathHunter CHO-K1 GPR120S β-Arrestin cells, 5000 cells/well; read-out: hGPR120 β-arrestin B EC50
T2 construct: host or cells: PathHunter CHO-K1 GPR120S β-Arrestin Cell Line
T2 sequence (Q5NUL3 1-361): T1 sequence (Q5NUL3 1-361)
Excerpt: The binding of an agonist (medium/long chain fatty acids or small molecule agonists) to the G-protein-coupled receptor GPR120 activates phospholipase C, leading to release of intracellular Ca^+2 through the generation of inositol 1,4,5-trisphosphate (InsP3 or IP3). GPR120 activation can also trigger intracellular signaling via recruitment of Beta-Arrestin. In the present method, agonist-induced activation of the human GPR120 receptor is monitored through the use of PathHunter CHO-K1 GPR120 Beta-Arrestin Cell Line engineered by DiscoveRx, as detailed below. The cell lines are designed to co-express both the ProLink/Enzyme Donor (PK)-tagged GPCR and the Enzyme […] (EA)-tagged Beta-Arrestin fusion proteins. Upon GPR120 receptor stimulation/activation, the EA-tagged Beta-Arrestin portion is translocated to the tagged receptor, where the two enzyme fragments are brought within close proximity. Under these conditions, these fragments can interact and form an active Beta-gal enzyme complex through Enzyme Fragment Complementation (EFC). This active Beta-gal complex can enzymatically hydrolyse the substrate to produce a detectable light signal; therefore, activation as a function of agonist concentration can be expressed as an EC50 value to determine relative compound activities. This in vitro assay therefore serves to assess compound agonist activity of the GPR120.
In Procedure β-arrestin B the cells used were PathHunter CHO-K1 GPR120S β-Arrestin Cell Line, expressing the short form of the GPR120 receptor (Accession #NM 181745), with 5000 cells/well.
The selected CHO-K1 GPR120 β-Arrestin cells were cultured in Ham's F12 media supplemented with 10% fetal bovine serum (FBS), 1% Glutamine, 1×p/s, 800 μg/mL G418 and 300 μg/mL Hygromycin B (for selection). Cell stocks were maintained and grown in a sub-confluent state using standard cell culture procedures. The day before the experiment, the cells were harvested with non-enzymatic cell dissociation buffer and re-suspended in complete growth media at the desired concentration. A Corning 384-plate was then seeded with the proper number of cells in a volume of 25 μL, per well. The seeded plates were incubated overnight at 37° C.
On the day of the experiment, the Assay Buffer containing (a) HBSS with Ca^++ and Mg^++, (b) 20 mM HEPES, and (c) 0.1% BSA stabilizer (pH 7.4) was prepared. The growth medium was gently removed from the cell plates and 20 μL of Assay Buffer added to each well. The plate was then incubated at 37° C. for 60 min. Test compounds were serially diluted in Assay Buffer to desired concentrations (more particularly to one or more of the following μM concentrations: 25, 12.5, 6.25, 3.125, 1.5625, 0.78125, 0.390625, 0.1953125, 0.09765625, 0.048828125, 0.024414063, 0.012207031). Five μL of compound dilution was then added to each well and the plate incubated at 37° C. for 90 min. The detection reagents were prepared according to the manufacture's instruction. Twelve μL of the detection reagents were added to each well and the plate incubated at room temperature for 60 min.
The plates were read on an EnVision instrument, using Protocol name: Luminescence, Plate type: 384 Costar, Measurement height: 3 mm, Measurement time: 1 s, Aperture: 384 Plate aperture. The % activity relative to the positive control was calculated using the following equation:
The % Activity values were plotted versus the concentration of test compound and fitted to a sigmoidal dose-response curve with a Hill slope=1 (fixed value) using nonlinear regression with GraphPad Prism 5.0 to calculate the EC50 values. The Fitting Equation was: Y=Bottom+(Top-Bottom)/(1+10^((Log EC50−X)*HillSlope)), where X is the log of the concentration and Y is the response.

[3] = system: C57b16 mouse; assay: C57b16 mouse OGTT; assay type: in vivo; settings: dosed 30 min prior to glucose PO 3 g/kg
Protocol: (§1) Male, C57bl/6J Mice were ordered in at 8 weeks of age from Jackson Labs. Individual mice weighed anywhere in the range of 25-30 grams on study day. The mice were fasted, with removal of food occurring at 7 am on the morning of the study. Animals were moved into the room at 10:00 am, to give them time to acclimate. Glucose (insulin syringes) was drawn up either the night before or the morning of the study. Glucose was dosed (IP) at 1.5 g/kg at 7.5 ml/kg (20% glucose straight TEKNOVA, 250 ml sterile bottle w/ catalogue number G0525). Test compounds were kept spinning and were only drawn into the syringes prior to study commencement. Animals were bled via tail snip to determine basal glucose levels prior to dosing of treatments. An Ascensia BREEZE Blood Glucose Monitoring System by Bayer (using unique 10-test disks) was used for determining glucose levels. The bleeds started at approximately 12:45 pm and dosing started, at 1-minute intervals, immediately after. All groups were dosed 30 minutes prior to glucose administration at a dose volume of 10 ml/kg (the dose volume was calculated separately for each individual animal). Thirty minutes after the first dose animals were bled again for a second baseline, or T=0, and immediately dosed with glucose via an i.p. injection. The exact dose volume for glucose was also calculated separately for each individual animal. Glucose measurements were taken at −30 min prior to compound dose, at t=0 (immediately prior to glucose dose), and at 15, 30, 45, 60, 90 min post glucose dose.
(§2) Glucose values were entered into an Excel sheet and graphed in GraphPad Prism. The following were calculated from Prism: Change from −30 to 0 BSLN Glucose, Raw Glucose AUC −30 to 90 min, Delta Glucose AUC −30 to 90 min, Raw Glucose AUC 0 to 90 min, Delta Glucose AUC 0 to 90 min.
The assay design is the same as that described above for the C57b16 mouse IPGTT. The difference is that glucose was dosed PO at 3 g/kg, 7.5 ml/kg of 40% glucose.

[4] = system: C57bl/6J Mice; assay: GPR120 C57bl6 mouse IPGTT; assay type: in vivo; settings: dosed 30 min prior to glucose IP 1.5 g/kg
Protocol: as §1, §2

| EC50 [1] | EC50 [2] | Structure (SMILES) | further results |
| --- | --- | --- | --- |
| 89 nM | 118 nM | Cc1ccc(-c2snc(Cl)c2COc2c(F)cc(CCC(=O)O)c(F)c2F)c(F)c1 [Cpd 107, 3-(4-{[3-Chloro-5-(2-fluoro-4-methylphenyl)isothiazol-4-yl]methoxy}-2,3,5-trifluorophenyl)propanoic acid] |  |
| 107 nM | 310 nM | COc1ccc(-c2nsc(C(F)(F)F)c2COc2ccc(CCC(=O)O)c(C)c2C)c(F)c1 [Cpd 120, 3-(4-{[3-(2-Fluoro-4-methoxyphenyl)-5-(trifluoromethyl)isothiazol-4-yl]methoxy}-2,3-dimethylphenyl)propanoic acid] |  |
| 274 nM | 819 nM | O=C(O)CCc1ccc(OCc2c(C(F)(F)F)nsc2-c2ccc(Cl)cc2)c(Cl)c1Cl [Cpd 181, 3-(2,3-Dichloro-4-{[5-(4-chlorophenyl)-3-(trifluoromethyl)isothiazol-4-yl]methoxy}phenyl)propanoic acid] |  |
| 405 nM | 1940 nM | Cc1c(CCC(=O)O)ccc(OCc2c(C(C)(C)C)nsc2C(F)(F)F)c1C [Cpd 198, 3-(4-{[3-tert-Butyl-5-(trifluoromethyl)isothiazol-4-yl]methoxy}-2,3-dimethylphenyl)propanoic acid] |  |
| 3230 nM |  | CCc1ccc(-c2cc(C(F)(F)F)sc2COc2ccc(CCC(=O)O)c(C)c2C)cc1 [Cpd 250, 3-(4-{[3-(4-Ethylphenyl)-5-(trifluoromethyl)thiophen-2-yl]methoxy}-2,3-dimethylphenyl)propanoic acid] |  |
| > 5000 nM |  | CCc1ccc(-c2nsc(C(F)(F)F)c2COc2c(F)ccc(CC(C)CO)c2F)cc1 (stereo not shown) [Cpd 251, 3-(3-{[3-(4-Ethylphenyl)-5-(trifluoromethyl)isothiazol-4-yl]methoxy}-2,4-difluorophenyl)-2-methylpropan-1-ol] |  |

The next lines start with the compound.

| Structure (SMILES) | EC50 [1] | EC50 [2] | further results |
| --- | --- | --- | --- |
| CC(C)Oc1cc(C(F)(F)F)sc1COc1c(F)cc(CCC(=O)O)cc1F [Cpd 16, 3-(3,5-Difluoro-4-{[3-(1-methylethoxy)-5-(trifluoromethyl)thiophen-2-yl]methoxy}phenyl)propanoic acid] | 382 nM | 1510 nM |  |
| COc1ccc(-c2csc(C(F)(F)F)c2COc2c(F)cc(CCCO)cc2F)cn1 [Cpd 38, 3-(3,5-difluoro-4-((4-(6-methoxypyridin-3-yl)-2-(trifluoromethyl)thiophen-3-yl)methoxy)phenyl)propan-1-ol] |  |  | C57 OGTT 3 mg/kg [3]: −44; C57 IPGTT 3 mg/kg ([4]; 3 mg/kg): −9 |
| CCc1ccc(-c2nsc(C(F)(F)F)c2COc2c(F)cc(CCC(=O)O)cc2F)cc1 [Cpd 70, 3-(4-[[3-(4-ethylphenyl)-5-(trifluoromethyl)-1,2-thiazol-4-yl]methoxy]-3,5-difluorophenyl)propanoic acid] |  |  | C57 IPGTT 30 mg/kg ([4]; 30 mg/kg): −88 |
| O=C(O)CCc1cc(F)c(OCc2c(-c3ccc(Cl)cc3)nsc2C(F)(F)F)c(F)c1 [Cpd 79, 3-(4-[[3-(4-chlorophenyl)-5-(trifluoromethyl)-1,2-thiazol-4-yl]methoxy]-3,5-difluorophenyl)propanoic acid] |  |  | C57 IPGTT 10 mg/kg [4]: −60 |
| OCCCc1ccc(OCc2c(Cl)nsc2-c2ccc(Cl)cc2)c(F)c1F [Cpd 102, 3-(4-((3-chloro-5-(4-chlorophenyl)isothiazol-4-yl)methoxy)-2,3-difluorophenyl)propan-1-ol] |  |  | C57 OGTT 3 mg/kg [3]: −32 |
| O=C(O)CCc1ccc(OCc2c(-c3ccc(Cl)cc3)nsc2C(F)(F)F)c(F)c1F [Cpd 106, 3-(4-[[3-(4-chlorophenyl)-5-(trifluoromethyl)-1,2-thiazol-4-yl]methoxy]-2,3-difluorophenyl)propanoic acid] |  |  | C57 IPGTT 10 mg/kg [4]: −34 |
| Cc1ccc(-c2snc(C(C)C)c2COc2c(F)cc(CCC(=O)O)cc2F)c(F)c1 [Cpd 191] | 323 nM |  |  |
